Broadly, the melting point is the temperature, or range, at which the solid turns liquid. As a reminder, the IC50 is the point on the concentration scale where inhibition reaches its midpoint. Usually EC50 stands for the midpoint of the concentration-response curve. Low values mean greater potency, high ones weaker potency.

Here are results for 11 molecules from patent publication US6831084B1, “Branched adamantyl and noradamantyl aryl- and aralkylpiperazines with serotonin 5-HT1A activity” (Wyeth, priority 1999, dated 2004).

Structures are written as SMILES. Where a name gives a salt, the structure may show the parent alone.

The target in series [1] is T1, serotonin 5-HT1A receptor (Rattus norvegicus, UniProt P19327).
T1 construct: in rat hippocampal membrane homogenates; from tissue; host or cells: rat hippocampus (membrane homogenates)
T1 sequence (P19327 1-422): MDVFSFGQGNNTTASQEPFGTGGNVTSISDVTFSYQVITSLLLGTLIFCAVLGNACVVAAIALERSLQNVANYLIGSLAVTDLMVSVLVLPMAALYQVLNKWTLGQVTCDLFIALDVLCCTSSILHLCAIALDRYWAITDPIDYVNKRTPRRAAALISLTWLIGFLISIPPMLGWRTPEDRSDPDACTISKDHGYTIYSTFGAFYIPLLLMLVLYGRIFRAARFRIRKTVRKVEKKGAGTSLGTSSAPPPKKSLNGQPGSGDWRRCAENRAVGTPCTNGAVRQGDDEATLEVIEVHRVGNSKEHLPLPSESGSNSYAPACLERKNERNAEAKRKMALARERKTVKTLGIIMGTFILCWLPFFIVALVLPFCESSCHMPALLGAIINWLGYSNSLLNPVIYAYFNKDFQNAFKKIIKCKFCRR
In words: Displacement of [3H]-8-OH-DPAT from 5-HT1A receptor in rat hippocampal membrane homogenates. The format is binding. The note with it: [3H]-8-OH-DPAT displacement, read-out: 5-HT1A Affinity (IC50). The source says: Affinity for the serotonin 5-HT1A receptor was established by assaying the test compound's ability to displace [^3H]-8-OH-DPAT from its binding site on the receptor complex in rat hippocampal membrane homogenates according to the method described in U.S. Pat. No. 5,482,940.

Series [2] deals with T2, human 5-HT1A receptor (Homo sapiens, UniProt P08908).
T2 construct: expressed in transfected cells; host or cells: CHO cells, stably transfected
T2 sequence (P08908 1-422): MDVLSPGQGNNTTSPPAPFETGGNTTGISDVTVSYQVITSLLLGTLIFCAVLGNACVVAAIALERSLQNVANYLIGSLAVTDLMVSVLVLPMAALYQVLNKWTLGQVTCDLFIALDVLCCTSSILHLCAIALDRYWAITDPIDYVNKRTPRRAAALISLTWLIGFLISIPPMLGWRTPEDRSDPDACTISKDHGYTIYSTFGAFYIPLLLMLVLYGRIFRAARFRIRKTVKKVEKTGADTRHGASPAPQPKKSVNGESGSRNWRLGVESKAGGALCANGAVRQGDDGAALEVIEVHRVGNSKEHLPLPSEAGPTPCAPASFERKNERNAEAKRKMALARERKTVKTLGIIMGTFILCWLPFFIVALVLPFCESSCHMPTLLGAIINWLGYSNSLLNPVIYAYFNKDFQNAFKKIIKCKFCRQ
In words: Block of 8-OH-DPAT-induced stimulation of [35S]-GTPγS binding (5-HT1A antagonist activity) in CHO cells stably transfected with human 5-HT1A receptor. The class given is biochemical. To be noted: block of 8-OH-DPAT-induced [35S]-GTPγS binding. On the technique in general: Binding of GTPγS marks nucleotide exchange on a G protein.

Series [3] concerns the target T2, human 5-HT1A receptor. Nature of the series: Stimulation of [35S]-GTPγS binding (5-HT1A agonist activity) in CHO cells stably transfected with human 5-HT1A receptor. The note with it: for 5-HT1A Agonist Activity (GTPγS) % Agonist Activity: relative to the effect of the 5-HT1A full agonist 8-OH-DPAT. The class given is biochemical. The source says: Data are presented as the percent of
agonist activity observed relative to the effect obtained with the 5-HT1A full agonist 8-OH-DPAT and the corresponding EC50 value.

`O=C(N[C@H](Cc1ccccc1)CN1CCN(Cc2ccccc2)CC1)C12CC3CC(CC(C3)C1)C2` (as salt: hydrochloride) (hydrate or solvate) [Example 1, (R)-N-[1-(Phenylmethyl)-2-[4-(phenylmethyl)-1-piperazinyl]ethyl]tricyclo[3.3.1.1^3,7)]-decane-1-carboxamide Dihydrochloride Dihydrate] yielded a melting point of 261 to 263 °C.
`O=C(N[C@@H](Cc1ccccc1)CN1CCN(Cc2ccccc2)CC1)C12CC3CC(CC(C3)C1)C2` (as salt: hydrochloride) (hydrate or solvate) [Example 2, (S)-N-[1-(Phenylmethyl)-2-[4-(phenylmethyl)-1-piperazinyl]ethyl]tricyclo[3.3.1.1^3,7)]-decane-1-carboxamide Dihydrochloride Dihydrate] came in with a melting point of 263 to 266 °C.
The molecule `O=C(N[C@H](Cc1ccccc1)CN1CCN(c2ncccn2)CC1)C12CC3CC(CC(C3)C1)C2` (hydrate or solvate) [Example 3, (R)-N-[1-(Phenylmethyl)-2-[4-(2-pyrimidinyl)-1-piperazinyl]ethyl]tricyclo[3.3.1.1^3,7)]-decane-1-carboxamide Hemihydrate] yielded a melting point of 172 to 175 °C.
For the molecule `O=C(N[C@H](Cc1ccccc1)CN1CCN(Cc2ccccc2)CC1)C12CC3CC(CC(C3)C1)C2` [Example 1, (R)-N-[1-(Phenylmethyl)-2-[4-(phenylmethyl)-1-piperazinyl]ethyl]tricyclo[3.3.1.1^3,7)]-decane-1-carboxamide Dihydrochloride Dihydrate], the IC50 in series [1] is 2.3 nM. In series [2], the “5-HT1A Antagonist Activity (GTPγS) % Antagonist Activity” value is given as 100% and the EC50 came out at 36 nM.
As to `O=C(N[C@@H](Cc1ccccc1)CN1CCN(Cc2ccccc2)CC1)C12CC3CC(CC(C3)C1)C2` [Example 2, (S)-N-[1-(Phenylmethyl)-2-[4-(phenylmethyl)-1-piperazinyl]ethyl]tricyclo[3.3.1.1^3,7)]-decane-1-carboxamide Dihydrochloride Dihydrate], the IC50 in series [1] worked out at 0.7 nM. Also, in series [3], the EC50 turned out to be 21 nM and the “5-HT1A Agonist Activity (GTPγS) % Agonist Activity” value is 51%.
The matching figures for `O=C(N[C@H](Cc1ccccc1)CN1CCN(c2ncccn2)CC1)C12CC3CC(CC(C3)C1)C2` [Example 3, (R)-N-[1-(Phenylmethyl)-2-[4-(2-pyrimidinyl)-1-piperazinyl]ethyl]tricyclo[3.3.1.1^3,7)]-decane-1-carboxamide Hemihydrate]: 0.43 nM, 2 nM and 100%.
Consider `O=C(N[C@@H](Cc1ccccc1)CN1CCN(c2ncccn2)CC1)C12CC3CC(CC(C3)C1)C2` [Example 4], for which the melting point fell in the range of 172 to 175 °C. The IC50 in series [1] stood at 1 nM. For the same molecule, in series [3], the EC50 came to 2.4 nM and the “5-HT1A Agonist Activity (GTPγS) % Agonist Activity” value was 99%.
With `Cl.Cl.O.O.O=C(N[C@@H](COCc1ccccc1)CN1CCN(Cc2ccccc2)CC1)C12CC3CC(CC(C3)C1)C2` [Example 5, (R)-N-[1-((Phenylmethoxy)methyl)-2-[4-(phenylmethyl)-1-piperazinyl]ethyl]tricyclo-[3.3.1.1^3,7)]-decane-1-carboxamide Dihydrochloride Dihydrate], the IC50 in series [1] was 62 nM. For the same molecule, in series [3], the EC50 was 77 nM.
On to `Cl.Cl.O.O.O=C(N[C@@H](COCc1ccccc1)CN1CCN(Cc2ccccc2)CC1)C12CC3CC(CC(C3)C1)C2` [Example 5], for which the “5-HT1A Agonist Activity (GTPγS) % Agonist Activity” value in series [3] is on record as 49%.
With `COc1ccccc1N1CCN(C[C@@H](Cc2ccccc2)NC(=O)C23CC4CC(CC(C4)C2)C3)CC1.COc1ccccc1N1CCN(C[C@@H](Cc2ccccc2)NC(=O)C23CC4CC(CC(C4)C2)C3)CC1.O.O=C(O)/C=C/C(=O)O` [Example 6, (R)-Adamantane-1-carboxylic acid [1-(phenylmethyl)-2-[4-(2-methoxyphenyl)-piperazinyl]ethyl]-amide Hemifumarate Hemihydrate], in series [1], the IC50 was found to be 0.21 nM. In series [3], the “5-HT1A Agonist Activity (GTPγS) % Agonist Activity” value is given as 76%.
In the case of `COc1ccccc1N1CCN(C[C@H](Cc2ccccc2)NC(=O)C23CC4CC(CC(C4)C2)C3)CC1.COc1ccccc1N1CCN(C[C@H](Cc2ccccc2)NC(=O)C23CC4CC(CC(C4)C2)C3)CC1.O.O.O=C(O)/C=C/C(=O)O` [Example 7, (S)-Adamantane-1-carboxylic acid [1-(phenylmethyl)-2-[4-(2-methoxyphenyl)-piperazinyl]ethyl]-amide Hemifumarate Hydrate], the IC50 in series [1] came out at 0.7 nM. Moreover, the “5-HT1A Agonist Activity (GTPγS) % Agonist Activity” value in series [3] stood at 85%.
